Test: xn = mol fraction of the nth substance listed
Settings: 100 kPa, Liquid; for mass density: Vibrating tube method; for speed of sound: 288.15 K, Frequency=5 MHz, Pulse-echo method

OCCCCCO [1,5-pentanediol] + O
mass density [kg/m3]
Settings	278.15 K	283.15 K
x1 = 0.005	999.89	999.55
x1 = 0.0101	1000.22	999.78
x1 = 0.0196	1001.39	1000.73
x1 = 0.0251	1002.34	1001.54
x1 = 0.0304	1003.39	1002.41
x1 = 0.05	1006.63	1005.19
x1 = 0.0769	1009.88	1007.89
x1 = 0.1002	1012.01	1009.64
x1 = 0.1438	1013.87	1011.18
x1 = 0.1845	1014.45	1011.58
x1 = 0.2503	1014	1010.96
x1 = 0.3	1013.14	1010.06
x1 = 0.3343	1012.59	1009.43
x1 = 0.4171	1010.69	1007.58
x1 = 0.454	1009.8	1006.71
x1 = 0.5003	1008.7	1005.6
x1 = 0.5362	1007.8	1004.7
x1 = 0.6177	1006	1003
x1 = 0.6478	1005.3	1002.3
x1 = 0.7025	1004.2	1001.2
x1 = 0.7504	1003.3	1000.3
x1 = 0.7927	1002.5	999.4
x1 = 0.8605	1001.1	998.1
x1 = 0.9004	1000.2	997.3
x1 = 0.9496	999.1	996.1
x1 = 1	998	995

Settings	speed of sound [m/s]
x1 = 0.0001	1467
x1 = 0.0002	1467.6
x1 = 0.0004	1468.5
x1 = 0.0007	1469.7
x1 = 0.001	1471.1
x1 = 0.0013	1472.4
x1 = 0.0018	1474.5
x1 = 0.0025	1477.3
x1 = 0.0032	1480.3
x1 = 0.0039	1483.3
x1 = 0.0047	1486.5
x1 = 0.0053	1489.1
x1 = 0.0059	1491.7
x1 = 0.0066	1494.6
x1 = 0.0074	1497.4
x1 = 0.0079	1499.7
x1 = 0.0086	1502.2
x1 = 0.0092	1504.6
x1 = 0.0098	1507
x1 = 0.0105	1509.5
x1 = 0.0112	1512
x1 = 0.0118	1514.3
x1 = 0.0125	1516.8
x1 = 0.0131	1519
x1 = 0.0138	1521.4
x1 = 0.0144	1523.8
x1 = 0.0151	1526.1
x1 = 0.0157	1528.2
x1 = 0.0164	1530.5
x1 = 0.0171	1532.7
x1 = 0.0177	1535
x1 = 0.0184	1537.1
x1 = 0.0188	1538.3
x1 = 0.0193	1540.1
x1 = 0.0199	1541.8
x1 = 0.0204	1543.6
x1 = 0.021	1545.5
x1 = 0.0219	1548.2
x1 = 0.0226	1550.3
x1 = 0.0233	1552.4
x1 = 0.024	1554.5
x1 = 0.0247	1556.6
x1 = 0.0256	1559.3
x1 = 0.0266	1562.2
x1 = 0.0278	1565.4
x1 = 0.0289	1568.3
x1 = 0.0299	1571
x1 = 0.0309	1573.7
x1 = 0.0319	1576.4
x1 = 0.0331	1579.3
x1 = 0.0342	1582.3
x1 = 0.0353	1584.9
x1 = 0.0365	1587.7
x1 = 0.0376	1590.3
x1 = 0.0387	1592.9
x1 = 0.0398	1595.3
x1 = 0.0409	1597.9
x1 = 0.042	1600.2
x1 = 0.0431	1602.6
x1 = 0.0445	1605.6
x1 = 0.0456	1607.8
x1 = 0.0473	1611.2
x1 = 0.0482	1612.9
x1 = 0.049	1614.5
x1 = 0.0499	1616.2
x1 = 0.0513	1618.7
x1 = 0.0529	1621.5
x1 = 0.0547	1624.7
x1 = 0.0561	1627.2
x1 = 0.0576	1629.6
x1 = 0.0595	1632.6
x1 = 0.0613	1635.3
x1 = 0.0632	1638.1
x1 = 0.0654	1641.4
x1 = 0.0673	1644
x1 = 0.0692	1646.6
x1 = 0.0715	1649.5
x1 = 0.0744	1653
x1 = 0.0768	1655.8
x1 = 0.0796	1658.9
x1 = 0.0824	1661.8
x1 = 0.0856	1665
x1 = 0.0887	1667.9
x1 = 0.0921	1670.8
x1 = 0.0965	1674.4
x1 = 0.1006	1677.4
x1 = 0.1051	1680.5
x1 = 0.1102	1683.6
x1 = 0.1153	1686.5
x1 = 0.1208	1689.2
x1 = 0.1238	1690.6
x1 = 0.1303	1693.2
x1 = 0.1382	1696
x1 = 0.1442	1697.7
x1 = 0.1503	1699.3
x1 = 0.1556	1700.5
x1 = 0.1612	1701.6
x1 = 0.167	1702.6
x1 = 0.1694	1703
x1 = 0.1748	1703.7
x1 = 0.1799	1704.3
x1 = 0.1852	1704.8
x1 = 0.1903	1705.2
x1 = 0.1955	1705.6
x1 = 0.2007	1705.9
x1 = 0.2046	1706
